According to patent US4699981A, “Cephalosporin derivatives” (Taisho Pharmaceutical Co., Ltd., priority 1985, dated 1987):
Converted amounts (≈) assume the structure as drawn. Counter-ions that a name gives are not always drawn. Like-named read-outs stand apart in the source and are kept apart here.

Tests used:
[1] = Concentration of the compound in blood after oral administration to rats (bioassay); assay type: in vivo, Male wister rats; details: rat, 50 mg/kg
Method: Male wister rats (7 weeks old) were administered orally with the test compound, and the change of the concentration of the compound in blood was measured.
Dosage of the test compound: 50 mg/kg
Quantitative method: Bioassy
test bacterium: Escherichia coli SC507)

[2] = test system: Pseudomonas aeruginosa NCTC 10490; test: Minimal inhibitory concentration, agar plate dilution method; assay type: cell-based; details: NCTC10490
Method: (§1) The antibacterial activities of the compounds of the present invention against various bacteria (inoculum size : 10^6 cells/ml) were tested by the agar plate dilution method, and the results are shown in the following Table 1.

[3] = test system: Klebsiella pneumoniae T 25; test: as above; assay type: cell-based; details: T25
Method: as §1

[4] = test system: Enterobactor cloacae IFO 13525; test: as above; assay type: cell-based
Method: as §1

[5] = test system: Escherichia coli NIHJ JC-2; test: as above; assay type: cell-based; details: NIHJJC2
Method: as §1

[6] = test system: Serratia marcescens IID 618; test: as above; assay type: cell-based; details: IID618
Method: as §1

[7] = Pseudomonas aeruginosa NCTC 10490, inoculum size 10^6 cells/ml, read-out: MIC
[8] = Klebsiella pneumoniae T 25, inoculum size 10^6 cells/ml, read-out: MIC
[9] = Enterobactor cloacae IFO 13525, inoculum size 10^6 cells/ml, read-out: MIC
[10] = Escherichia coli NIHJ JC-2, inoculum size 10^6 cells/ml, read-out: MIC
[11] = Serratia marcescens IID 618, inoculum size 10^6 cells/ml, read-out: MIC

Work on `COC(=O)/C=C\SC1=C(C(=O)O)N2C(=O)[C@@H](NC(=O)/C(=N\OCC(=O)O)c3csc(N)n3)[C@H]2SC1` [A, 7β-{α-(2-aminothiazole-4-yl)-β-[(Z)-carboxymethoxyimino]acetamido)}-3[(Z)-2-methoxycarbonylvinylthio]-3-cephem-4-carboxylic acid sodium salt] yielded a concentration at 1 h [1] of 37800 ng/mL, a concentration at 2 h [1] of 38900 ng/mL and a concentration at 4 h [1] of 32500 ng/mL. The MIC [2, 7] was 25 µg/mL, the MIC [3, 8] was 0.39 µg/mL and the MIC [4, 9] was 25 µg/mL. For the same compound, the MIC [5, 10] was 0.2 µg/mL and the MIC [6, 11] was 1.56 µg/mL.

`CCOC(=O)/C=C\SC1=C(C(=O)O)N2C(=O)[C@@H](NC(=O)/C(=N\OCC(=O)O)c3csc(N)n3)[C@H]2SC1` [B] gave a concentration at 1 h [1] of 34000 ng/mL, a concentration at 2 h [1] of 37100 ng/mL and a concentration at 4 h [1] of 31000 ng/mL. The MIC [2, 7] was 3.13 µg/mL (≈ 5.61 µM), the MIC [3, 8] was 0.39 µg/mL (≈ 0.699 µM) and the MIC [4, 9] was 12.5 µg/mL (≈ 22.4 µM). The MIC [5, 10] was 0.2 µg/mL (≈ 0.359 µM) and the MIC [6, 11] was 0.39 µg/mL (≈ 0.699 µM).

In the case of `CC(C)OC(=O)/C=C\SC1=C(C(=O)O)N2C(=O)[C@@H](NC(=O)/C(=N\OCC(=O)O)c3csc(N)n3)[C@H]2SC1` [C], the MIC [2, 7] is reported as 12.5 µg/mL (≈ 21.9 µM), the MIC [3, 8] is reported as 0.39 µg/mL (≈ 0.682 µM) and the MIC [4, 9] is reported as 6.25 µg/mL (≈ 10.9 µM). For the same compound, the MIC [5, 10] was 0.39 µg/mL (≈ 0.682 µM) and the MIC [6, 11] was 0.39 µg/mL (≈ 0.682 µM).

With `C=CCOC(=O)/C=C\SC1=C(C(=O)[O-])N2C(=O)[C@@H](NC(=O)/C(=N\OCC(=O)[O-])c3csc(N)n3)[C@H]2SC1.[Na+].[Na+]` [D, 7β-{α-(2-aminothiazole-4-yl)-α-[(Z)-carboxymethoxyimino]acetamido}-3-[(Z)-2-allyloxycarbonylvinylthio]-3-cephem-4-carboxylic acid sodium salt] the MIC ([2]; Pseudomonas aeruginosa) was 6.25 µg/mL, the MIC ([3]; Klebsiella pneumoniae) was 0.39 µg/mL and the MIC [4] was 12.5 µg/mL. It also gave an MIC ([5]; Escherichia coli) of 0.39 µg/mL and an MIC ([6]; Serratia marcescens) of 0.39 µg/mL.

With `CC1=C(C(=O)O)N2C(=O)[C@@H](NC(=O)[C@H](N)c3ccccc3)[C@H]2SC1` [YY, Cefalexin, reference compound] the MIC ([2]; Pseudomonas aeruginosa) was > 100 µg/mL, the MIC ([3]; Klebsiella pneumoniae) was 100 µg/mL (≈ 288 µM) and the MIC [4] was > 100 µg/mL. For the same compound, the MIC ([5]; Escherichia coli) was 12.5 µg/mL (≈ 36 µM) and the MIC ([6]; Serratia marcescens) was > 100 µg/mL.
